Counter-ions that a name gives are not always drawn. One block for each compound: values may come before it.
Assay: collision cross section in nitrogen (drift tube, single-field); higher = larger gas-phase ion size
[1] = ion type: [M+H], ion source: APCI, ion mode: Positive
[2] = ion type: [M+H], ion source: ESI, ion mode: Positive
[3] = ion type: [M+Na], ion source: ESI, ion mode: Positive
[4] = ion type: [M-H], ion source: ESI, ion mode: Negative
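Also: chemical standards at 10 µM analysed by drift tube IMS-QTOF MS in about 3.95 torr nitrogen, mean of duplicate injections differing ≤1%, mass error below 10 ppm.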

collision cross section in nitrogen [1]: 188.2 Å² | collision cross section in nitrogen [2]: 188.3 Å² | collision cross section in nitrogen [3]: 204.8 Å²
SMILES: O=C(O)c1cn(-c2ccc(F)cc2)c2cc(N3CCNCC3)c(F)cc2c1=O [Sarafloxacin]

collision cross section in nitrogen [3]: 189.2 Å² | collision cross section in nitrogen [4]: 178.9 Å²
SMILES: C=C[C@](C)(O)CC[C@@H]1[C@@]2(C)CCCC(C)(C)[C@@H]2CC[C@@]1(C)O [Sclareol]

SMILES: CN1[C@@H]2C[C@@H](OC(=O)[C@H](CO)c3ccccc3)C[C@H]1[C@@H]1O[C@@H]12 [Scopolamine hydrobromide]
collision cross section in nitrogen [1]: 170.8 Å² | collision cross section in nitrogen [2]: 171.7 Å²

SMILES: CN1[C@@H]2C[C@@H](OC(=O)[C@H](CO)c3ccccc3)C[C@H]1[C@@H]1O[C@@H]12 [Scopolamine hydrochloride]
collision cross section in nitrogen [1]: 172.2 Å² | collision cross section in nitrogen [2]: 171.7 Å²

collision cross section in nitrogen [1]: 155.3 Å² | collision cross section in nitrogen [2]: 155.2 Å² | collision cross section in nitrogen [3]: 172.2 Å²
SMILES: CCNc1nc(NC(C)CC)nc(OC)n1 (stereo unspecified) [Secbumeton]

SMILES: CCCC(=NOCC)C1=C(O)CC(CC(C)SCC)CC1=O (stereo unspecified) [Sethoxydim]
collision cross section in nitrogen [1]: 181.6 Å² | collision cross section in nitrogen [2]: 181 Å² | collision cross section in nitrogen [4]: 178.5 Å²

SMILES: CCNc1nc(Cl)nc(NCC)n1 [Simazine]
collision cross section in nitrogen [1]: 143.3 Å² | collision cross section in nitrogen [2]: 144 Å²

SMILES: CCNc1nc(NCC)nc(SC)n1 [Simetryn]
collision cross section in nitrogen [1]: 149.6 Å² | collision cross section in nitrogen [2]: 149.5 Å²

collision cross section in nitrogen [4]: 174.4 Å²
SMILES: CC(C)COC(=O)CC(C(=O)OCC(C)C)S(=O)(=O)O (stereo unspecified) [Sodium 1,4-diisobutyl sulfosuccinate]

collision cross section in nitrogen [4]: 141.6 Å²
SMILES: O=S(=O)(O)c1cccc2ccccc12 [Sodium 1-naphthalenesulfonate]

collision cross section in nitrogen [4]: 138.5 Å²
SMILES: Cc1ccc(C)c(S(=O)(=O)O)c1 [Sodium 2,5-dimethylbenzenesulfonate]

collision cross section in nitrogen [2]: 151.1 Å² | collision cross section in nitrogen [3]: 167.9 Å²
SMILES: O=S(=O)(O)CCN1CCN(CCO)CC1 [Sodium 2-[4-(2-hydroxyethyl)piperazin-1-yl]ethanesulfonate]

collision cross section in nitrogen [4]: 162 Å²
SMILES: O=C1c2ccccc2C(=O)c2cc(S(=O)(=O)O)ccc21 [Sodium 2-anthraquinonesulfonate]

collision cross section in nitrogen [4]: 130.9 Å²
SMILES: O=Cc1ccccc1S(=O)(=O)O [Sodium 2-formylbenzenesulfonate]

collision cross section in nitrogen [4]: 127.7 Å²
SMILES: Sc1nc2ccccc2s1 [Sodium 2-mercaptobenzothiolate]

SMILES: COc1ccc([N+](=O)[O-])cc1O [Sodium 2-methoxy-5-nitrophenolate]
collision cross section in nitrogen [4]: 129.6 Å²

collision cross section in nitrogen [4]: 131.7 Å²
SMILES: Cc1ccccc1S(=O)(=O)O [Sodium 2-methylbenzenesulfonate]

collision cross section in nitrogen [4]: 124.2 Å²
SMILES: C=C(C)CS(=O)(=O)O [Sodium 2-methylprop-2-ene-1-sulfonate]

SMILES: O=[N+]([O-])c1ccccc1O [Sodium 2-nitrophenolate]
collision cross section in nitrogen [4]: 121.6 Å²

SMILES: Oc1ccccc1-c1ccccc1 [Sodium 2-phenylphenate tetrahydrate]
collision cross section in nitrogen [4]: 136.6 Å²

collision cross section in nitrogen [4]: 131.2 Å²
SMILES: O=C(O)c1cccc([N+](=O)[O-])c1 [Sodium 3-nitrobenzoate]

collision cross section in nitrogen [4]: 147.5 Å²
SMILES: CC(C)c1ccc(S(=O)(=O)O)cc1 [Sodium 4-isopropylbenzenesulfonate]

collision cross section in nitrogen [4]: 135.2 Å²
SMILES: Cc1ccc(S(=O)(=O)O)cc1 [Sodium 4-methylbenzenesulfonate]

collision cross section in nitrogen [4]: 120.5 Å²
SMILES: O=[N+]([O-])c1ccc(O)cc1 [Sodium 4-nitrophenolate]

collision cross section in nitrogen [4]: 173.9 Å²
SMILES: CCCCCCCCc1ccc(S(=O)(=O)O)cc1 [Sodium 4-octylbenzenesulfonate]

collision cross section in nitrogen [4]: 148.7 Å²
SMILES: O=S(=O)(O)c1ccc2cc(O)ccc2c1 [Sodium 6-hydroxynaphthalene-2-sulfonate]

collision cross section in nitrogen [4]: 125.4 Å²
SMILES: N[C@@H](CCC(=O)O)C(=O)O [Sodium L-glutamate hydrate]

collision cross section in nitrogen [4]: 182 Å²
SMILES: CC(C)C1=CC2=CC[C@@H]3[C@](C)(CCC[C@@]3(C)C(=O)O)[C@H]2CC1 [Sodium abietate]

SMILES: COc1cccc2c1cc([N+](=O)[O-])c1c(C(=O)O)cc3c(c12)OCO3 [Sodium aristolochate-I]
collision cross section in nitrogen [3]: 185.6 Å²

SMILES: [O-][Cl+]O [Sodium chlorite]
collision cross section in nitrogen [4]: 105.2 Å²

collision cross section in nitrogen [4]: 158.1 Å²
SMILES: CCCCCCCCCCOS(=O)(=O)O [Sodium decyl sulfate]

SMILES: CC(C)CP(=S)(S)CC(C)C [Sodium diisobutyldithiophosphinate]
collision cross section in nitrogen [4]: 146.5 Å²

collision cross section in nitrogen [3]: 167.5 Å² | collision cross section in nitrogen [4]: 186.3 Å²
SMILES: CCCCCCCCCCCCc1ccccc1S(=O)(=O)O [Sodium dodecylbenzenesulfonate]

collision cross section in nitrogen [4]: 150.1 Å²
SMILES: CCCCC(CC)COS(=O)(=O)O (stereo unspecified) [Sodium ethasulfate hydrate]

collision cross section in nitrogen [4]: 150.5 Å²
SMILES: CCCCC(CC)COS(=O)(=O)O (stereo unspecified) [Sodium ethasulfate]

collision cross section in nitrogen [4]: 113.6 Å²
SMILES: C=CS(=O)(=O)O [Sodium ethenesulfonate]

collision cross section in nitrogen [4]: 181.3 Å²
SMILES: CCCCCCCCCCCCCCCCOS(=O)(=O)O [Sodium hexyldecyl sulfate]

collision cross section in nitrogen [4]: 138.9 Å²
SMILES: Cc1ccc(S(=O)(=O)O)c(C)c1 [Sodium m-xylene-4-sulfonate]

collision cross section in nitrogen [4]: 113.1 Å²
SMILES: COS(=O)(=O)O [Sodium methyl sulfate]

collision cross section in nitrogen [4]: 173.4 Å²
SMILES: CCCCCCCCCCCCCCOS(=O)(=O)O [Sodium myristyl sulfate]

collision cross section in nitrogen [1]: 123.5 Å² | collision cross section in nitrogen [2]: 124.5 Å²
SMILES: O=C(O)c1cccnc1 [Sodium nicotinate]

collision cross section in nitrogen [4]: 154.5 Å²
SMILES: CCCCCCCCCOS(=O)(=O)O [Sodium nonyl sulfate]

collision cross section in nitrogen [4]: 151.3 Å²
SMILES: CCCCCCCCOS(=O)(=O)O [Sodium octyl sulfate]

collision cross section in nitrogen [3]: 151.2 Å² | collision cross section in nitrogen [4]: 147.1 Å²
SMILES: CC(C)(CO)[C@@H](O)C(=O)NCCC(=O)O [Sodium pantothenate]

collision cross section in nitrogen (ion source: ESI, ion mode: Negative, ion type: [M]- (permanent anion)): 101 Å²
SMILES: F[B-](F)(F)F [Sodium tetrafluoroborate]

collision cross section in nitrogen [4]: 170 Å²
SMILES: CCCCCCCCCCCCCOS(=O)(=O)O [Sodium tridecyl sulfate]

collision cross section in nitrogen [4]: 137 Å²
SMILES: CCCC(CCC)C(=O)O [Sodium valproate]

collision cross section in nitrogen [1]: 167.1 Å² | collision cross section in nitrogen [2]: 167 Å² | collision cross section in nitrogen [3]: 178.6 Å² | collision cross section in nitrogen [4]: 172.5 Å²
SMILES: CC(=O)CC(c1ccccc1)c1c(O)c2ccccc2oc1=O (stereo unspecified) [Sodium warfarin]

collision cross section in nitrogen [3]: 211.8 Å² | collision cross section in nitrogen [4]: 207.7 Å²
SMILES: CCCCCCCC/C=C\CCCCCCCC(=O)OC[C@@H](O)[C@H]1OC[C@H](O)[C@H]1O [Sorbitan, mono-(9Z)-9-octadecenoate]

collision cross section in nitrogen [2]: 190.2 Å²
SMILES: C[C@@H]1CN(c2c(F)c(N)c3c(=O)c(C(=O)O)cn(C4CC4)c3c2F)C[C@H](C)N1 [Sparfloxacin]

SMILES: CCC(C)(C)C(=O)OC1=C(c2ccc(Cl)cc2Cl)C(=O)OC12CCCCC2 [Spirodiclofen]
collision cross section in nitrogen [3]: 209.5 Å²

SMILES: CCOC(=O)OC1=C(c2cc(C)ccc2C)C(=O)N[C@]12CC[C@@H](OC)CC2 [Spirotetramat]
collision cross section in nitrogen [1]: 190.2 Å² | collision cross section in nitrogen [2]: 189.3 Å² | collision cross section in nitrogen [3]: 202.3 Å²

SMILES: CCCN(CC)CC1COC2(CCC(C(C)(C)C)CC2)O1 (stereo unspecified) [Spiroxamine]
collision cross section in nitrogen [2]: 176.6 Å²

SMILES: O=C1C[C@@H]2OCC=C3CN4CC[C@]56c7ccccc7N1[C@H]5[C@H]2[C@H]3C[C@H]46 [Strychnine hemisulphate salt]
collision cross section in nitrogen [1]: 172.6 Å² | collision cross section in nitrogen [2]: 175.8 Å²

SMILES: O=C1C[C@@H]2OCC=C3CN4CC[C@]56c7ccccc7N1[C@H]5[C@H]2[C@H]3C[C@H]46 [Strychnine]
collision cross section in nitrogen [1]: 172 Å² | collision cross section in nitrogen [2]: 175.2 Å²

collision cross section in nitrogen [3]: 179.7 Å² | collision cross section in nitrogen [4]: 174.5 Å²
SMILES: OC[C@H]1O[C@H](O[C@]2(CCl)O[C@H](CCl)[C@@H](O)[C@@H]2O)[C@H](O)[C@@H](O)[C@H]1Cl [Sucralose]

collision cross section in nitrogen [3]: 238.1 Å²
SMILES: CC(=O)OC[C@H]1O[C@@](COC(C)=O)(O[C@H]2O[C@H](COC(C)=O)[C@@H](OC(C)=O)[C@H](OC(C)=O)[C@H]2OC(C)=O)[C@@H](OC(C)=O)[C@@H]1OC(C)=O [Sucrose octaacetate]

collision cross section in nitrogen [4]: 112 Å²
SMILES: NS(=O)(=O)O [Sulfamic acid]

collision cross section in nitrogen [1]: 203.9 Å² | collision cross section in nitrogen [2]: 203.6 Å² | collision cross section in nitrogen [4]: 197.5 Å²
SMILES: O=C(O)c1cc(N=Nc2ccc(S(=O)(=O)Nc3ccccn3)cc2)ccc1O [Sulfasalazine]

collision cross section in nitrogen [1]: 153.3 Å² | collision cross section in nitrogen [2]: 153.6 Å² | collision cross section in nitrogen [3]: 167.2 Å² | collision cross section in nitrogen [4]: 154.1 Å²
SMILES: Nc1ccc(S(=O)(=O)Nc2nccs2)cc1 [Sulfathiazole sodium]

collision cross section in nitrogen [1]: 153.5 Å² | collision cross section in nitrogen [2]: 153.9 Å² | collision cross section in nitrogen [3]: 167.5 Å² | collision cross section in nitrogen [4]: 154.3 Å²
SMILES: Nc1ccc(S(=O)(=O)Nc2nccs2)cc1 [Sulfathiazole]

SMILES: Cc1nn(-c2cc(NS(C)(=O)=O)c(Cl)cc2Cl)c(=O)n1C(F)F [Sulfentrazone]
collision cross section in nitrogen [2]: 178.2 Å² | collision cross section in nitrogen [3]: 184 Å² | collision cross section in nitrogen [4]: 182.4 Å²

collision cross section in nitrogen [4]: 124.5 Å²
SMILES: O=C(O)CC(C(=O)O)S(=O)(=O)O (stereo unspecified) [Sulfosuccinic acid]

SMILES: CCOP(=S)(OCC)OP(=S)(OCC)OCC [Sulfotep]
collision cross section in nitrogen [3]: 172.2 Å²

collision cross section in nitrogen [2]: 196.2 Å²
SMILES: CC1=C(CC(=O)O)c2cc(F)ccc2/C1=C\c1ccc(S(C)=O)cc1 (stereo unspecified) [Sulindac]

collision cross section in nitrogen [4]: 167.7 Å²
SMILES: COc1cc(O)c(C(=O)c2ccccc2)cc1S(=O)(=O)O [Sulisobenzone hydrate]

collision cross section in nitrogen [4]: 168.1 Å²
SMILES: COc1cc(O)c(C(=O)c2ccccc2)cc1S(=O)(=O)O [Sulisobenzone]

Source: the supplement of paper PMC12317010
